The values below come from ChEMBL document CHEMBL3507680, “University of Dundee, Gates Library screen for HepG2 cell viability”.

The nature of the data set: Human HepG2 cell viability assay in 384 well format. The class given is toxicity, cell-based. The arrangement: dose 125 nL, time 70.5 hour; cytotoxicity at 70.5 h: concentration not given beside the values. The conditions noted are these: HepG2 cells, read-out: Inhibition.
Take `CCc1noc(C(C)N(C)Cc2cc(Br)ccc2OC)n1` (configuration not stated): the cytotoxicity at 70.5 h is -15.2%.

On to `CCCC(NC(=O)c1ccc(C)cc1C)c1nnn[nH]1` (configuration not stated), for which the cytotoxicity at 70.5 h turned out to be 0.32%. The result for `CCCC(NC(=O)c1cc(C)c(F)cc1F)c1nnn[nH]1` (configuration not stated) reads -2.37%; that for `CCC1CCCCN1CCNC(=O)N1CCN(Cc2ccon2)CC1` (configuration not stated), -2.53%. As for `CN1CCC(CCNC(=O)N2CCN(Cc3ccon3)CC2)CC1`, the cytotoxicity at 70.5 h came out at 14.9%. The result for `COc1ccc(CNC(C)c2ccc(Cl)cc2)c(OC)c1OC` (configuration not stated) reads 13.3%; that for `CCCC(NC(=O)c1cc(C)ccc1O)c1nnn[nH]1` (configuration not stated), -10.4%; that for `CCC(C)Sc1nncn1-c1ccc(OC)nc1` (configuration not stated), 5.95%. `COc1ccc(CNC(C)c2ccc(Cl)c(Cl)c2)c(OC)c1OC` (configuration not stated): the cytotoxicity at 70.5 h stood at 5.68%. As to `CCOCCCNC(=O)Cc1cccc(F)c1`, the cytotoxicity at 70.5 h was 1.71%. Turning to `O=C(NCCNS(=O)(=O)c1ccc2c(c1)CCC2)c1ccccc1`, the cytotoxicity at 70.5 h was -1.96%. Then `Cc1ccc(-c2cnc(CCC(=O)NCCN3CCOCC3)o2)cc1C`, with 2.52%; and `O=C(C1CC(=O)N(c2ccccc2Br)C1)N1CCCCCC1` (configuration not stated), with 11.2%. Then `CC(C)(C)OC(=O)NC(C)(C)c1noc(CSc2nncs2)n1`, with 25.7%. Then `CCS(=O)(=O)c1ccc(N2CCC(NC(=O)CC3CCCC3)CC2)cc1`, with -9.91%; and `Cn1c(C(=O)N2CCC(C3OCCO3)CC2)c(Cl)c2ccccc21`, with -9.46%. For the molecule `COc1cc(CNC(=O)C(C)SC)cc(Br)c1OC` (configuration not stated), the cytotoxicity at 70.5 h is -8.14%.

As to `COc1ccc(NC(=O)Cc2c(C)nc3c(c2C)c(=O)[nH]n3C)cn1`, the cytotoxicity at 70.5 h is -4.63%. As to `CCC(C)C(=O)NCc1cc(Br)c(OC)c(OC)c1` (configuration not stated), the cytotoxicity at 70.5 h is -6.76%. On to `COc1ncccc1NC(=O)N1CCC(C(=O)NC(C)C)CC1`, for which the cytotoxicity at 70.5 h was -5.13%. As to `COc1ncccc1NC(=O)NCC1CC1`, the cytotoxicity at 70.5 h was -3.58%. Then `CCN(CC)C(=O)C1CCN(C(=O)Nc2cccnc2OC)CC1`, with 34.4%; and `Cc1nc2c(c(C)c1CC(=O)Nc1ccnn1C(C)C)c(=O)[nH]n2C`, with 2.43%; and `CCOC(=O)COc1cccc(NC(=O)C2COCCO2)c1` (configuration not stated), with -3.53%. Turning to `COc1cccc(NC(=O)Cc2c(C)nc3c(c2C)c(=O)[nH]n3C)c1`, the cytotoxicity at 70.5 h is -6.7%. For `Cc1cc(C)n(CC2CCCCN2CC(=O)Nc2nnc(C)s2)n1` (configuration not stated), the cytotoxicity at 70.5 h is -2.39%. The result for `CCS(=O)(=O)c1ccc(N2CCC(N)CC2)cc1` reads -1.97%. Then `CCS(=O)(=O)c1ccc(N2CCC(NC(=O)NC(C)CO)CC2)cc1` (configuration not stated), with -1.95%; and `CC(=O)NCCNC(=O)NCCCc1cccc(F)c1`, with -5.39%. On to `O=S(=O)(Cc1cccc(F)c1)NCC(O)Cc1ccccc1` (configuration not stated), for which the cytotoxicity at 70.5 h is -10.7%. Regarding `COCCCS(=O)(=O)N1CCN(c2cccc(O)c2)CC1`, the cytotoxicity at 70.5 h was -6.99%. The result for `CCc1nc(NS(=O)(=O)c2cc(C)c(F)cc2Cl)no1` reads 25.9%; that for `CCc1nc(NS(=O)(=O)c2ccc(F)cc2Cl)no1`, -8.4%. With `COc1ncccc1NC(=O)N1CCCC(CNC(=O)OC(C)(C)C)C1` (configuration not stated), the cytotoxicity at 70.5 h is -6.55%.

`c1nc(N2CCCC2Cn2cncn2)c2ccsc2n1` (configuration not stated): the cytotoxicity at 70.5 h worked out at 30.4%. Consider `COCCN1CCN(CCS(=O)(=O)c2cccc(OC)c2)CC1`, for which the cytotoxicity at 70.5 h was -2.71%. Turning to `CCCC1CCCN(C(=O)Nc2cccnc2OC)CC1` (configuration not stated), the cytotoxicity at 70.5 h turned out to be 19.4%.

Take `Cc1cc(NC(=O)NC2CCCc3c2cnn3CCO)n(C)n1` (configuration not stated): the cytotoxicity at 70.5 h is -1.75%. As for `Cc1nnc(NC(=O)NC2CCCc3c2cnn3CCO)s1` (configuration not stated), the cytotoxicity at 70.5 h was -6.14%. Then `N#Cc1ccc(OCC(O)CN2CCN(c3nccs3)CC2)cc1` (configuration not stated), with 13.7%; and `Cc1ccc(C)c(S(=O)(=O)NCCC(=O)NCc2ccoc2)c1`, with -11.7%. Then `O=C(CCNS(=O)(=O)c1ccc(F)cc1)NCc1ccoc1`, with -9.41%; and `Cc1cc(C)c(S(=O)(=O)NCCC(=O)NCc2ccoc2)c(C)c1`, with 3.02%; and `O=C(CCNS(=O)(=O)c1ccc(Cl)cc1)NCc1ccoc1`, with -5.84%. `Cc1ccc(CNC(=O)NC2CCCc3c2cnn3CCO)cn1` (configuration not stated): the cytotoxicity at 70.5 h was -11.1%.

As to `CC(C)CCC(=O)Nc1ccc2oc(=O)n(CCN(C)C)c2c1`, the cytotoxicity at 70.5 h is -1.73%. On to `CN(Cc1ccncc1)C(=O)CCNS(=O)(=O)c1cccnc1`, for which the cytotoxicity at 70.5 h amounted to 2.92%. The result for `CC(C)NC(=O)CCNC(=O)c1cnc(Cc2ccc(F)cc2)s1` reads -4.85%; that for `COC(=O)CCNC(=O)c1cnc(Cc2ccc(F)cc2)s1`, -2.52%; that for `Cc1ccc(C(=O)N(CCC#N)Cc2ccccn2)cc1C`, 8.47%.

Take `Cc1cccc(OCC(O)CN2CCN(c3nccs3)CC2)c1` (configuration not stated): the cytotoxicity at 70.5 h was -3.61%.

Consider `COCc1ccc(C(=O)N(CCC#N)Cc2ccccn2)cc1`, for which the cytotoxicity at 70.5 h was -3.02%. Then `Cc1nc(COc2ccc(CNCCn3cccn3)cc2)cs1`, with 4.56%; and `CC(O)CN1CCN(C(=O)c2cnn(-c3ccccc3Cl)c2)CC1` (configuration not stated), with -2.98%. Consider `Cc1cnn(CCNCc2ccc(OCc3cscn3)cc2)c1`, for which the cytotoxicity at 70.5 h is -6.84%. Then `CN(C)CCCNC(=O)c1cnc(Cc2ccc(F)cc2)s1`, with -6.21%.

Take `COc1c(C)cnc(CSc2nnc(N3CCCC3)s2)c1C`: the cytotoxicity at 70.5 h turned out to be 8.14%. The result for `O=C(O)c1ccc(S(=O)(=O)Nc2c(F)cccc2-n2cccn2)cc1` reads -1.35%; that for `CCN(CC1CN(Cc2cccc(C#N)c2)CCO1)c1cccnn1` (configuration not stated), 0.605%. On to `CC(C)OCCC(=O)NCCc1csc(N2CCCC2)n1`, for which the cytotoxicity at 70.5 h came out at 5.53%. The result for `COc1c(C)cnc(CSc2nnc(N)s2)c1C` reads -3.12%; that for `Cc1cnn(CCNCc2ccc(OCc3ccccn3)cc2)c1`, 2.45%. Then `COc1cc(C(=O)N(CCC#N)Cc2ccccn2)ccc1C`, with 2.05%; and `Cc1ccc(C2COCCN2C(=O)c2ccc(C#N)cc2)o1` (configuration not stated), with -7.82%. Take `COCc1ccc(C(=O)N2CCOCC2c2ccc(C)o2)cc1` (configuration not stated): the cytotoxicity at 70.5 h is -0.476%. Take `Cc1cnn(CCNCc2ccc(OCc3noc(C)n3)cc2)c1`: the cytotoxicity at 70.5 h is -6.14%. As for `O=C(CCNS(=O)(=O)c1ccccc1F)NCc1ccoc1`, the cytotoxicity at 70.5 h was 4.05%.

With `CC(C)(O)CSCCNCc1ccc(Cl)c2cccnc12`, the cytotoxicity at 70.5 h turned out to be 12.8%. `COCCCNC1CCCN(c2ccc(C)nn2)C1` (configuration not stated): the cytotoxicity at 70.5 h was -9.97%. Then `Cc1cccc(S(=O)(=O)N2CSCC2C(=O)NC(C)(C)C)c1` (configuration not stated), with -3.48%. The result for `CC(C)(C)NC(=O)C1CSCN1S(=O)(=O)c1ccccc1S(C)(=O)=O` (configuration not stated) reads -1.89%; that for `CC(C)(C)NC(=O)C1CSCN1S(=O)(=O)c1ccccc1F` (configuration not stated), -4.62%; that for `CN(c1ccc2ccccc2c1)S(=O)(=O)c1cc(C(=O)O)cs1`, -8.18%. The result for `O=C(NC1CCN(C2CC2)CC1)NC1CCOc2ccc(Br)cc21` (configuration not stated) reads 5.74%; that for `Cc1cccc(N(C)S(=O)(=O)c2cc(C(=O)O)cs2)c1C`, -5.76%; that for `Cc1noc(Cl)c1CC(=O)NCC(C)(O)c1ccc(F)cc1F` (configuration not stated), 10.7%.

`CSCCc1ccc(NC(=O)NC(C)Cn2cncn2)cc1` (configuration not stated): the cytotoxicity at 70.5 h was -2.38%.

For the molecule `COC(=O)NCC(=O)NCC(C)(C)c1cccc(C(F)(F)F)c1`, the cytotoxicity at 70.5 h was -1.23%. `CC1CN(C2CCN(Cc3nccn3CC(F)(F)F)CC2)CCO1` (configuration not stated): the cytotoxicity at 70.5 h was -9.54%. For `CC(C)C(C#N)N1CCN(Cc2nccn2CC(F)(F)F)CC1` (configuration not stated), the cytotoxicity at 70.5 h is -10.7%. In the case of `CCN(Cc1ccccc1)C1CCN(c2cc(C)nn2C)C1=O` (configuration not stated), the cytotoxicity at 70.5 h was -8.27%. The result for `Cn1cc(C(=O)Nc2ccnc(Oc3ccccc3)c2)ccc1=O` reads -5.49%; that for `CN(C(=O)COC1CCCCC1)C1CCN(CC2CCOC2)CC1` (configuration not stated), -1.92%; that for `O=C(C[S+]([O-])Cc1c(F)cccc1Cl)N1CCc2sccc2C1` (configuration not stated), -6.1%. As to `O=C(C[S+]([O-])Cc1ccc(F)cc1Cl)N1CCc2sccc2C1` (configuration not stated), the cytotoxicity at 70.5 h is -6.4%. The result for `COC(=O)c1sc(NCc2ccc(N3CCC(O)CC3)c(F)c2)nc1Cl` reads -4.16%. The result for `Cc1c(C(=O)NC2(C#N)CCCC2)nnn1-c1ccccc1Cl` reads -9.11%. With `Cc1c(C(=O)NC2(C#N)CCSC2)cnn1-c1ccccc1Cl` (configuration not stated), the cytotoxicity at 70.5 h amounted to 1.06%.

Take `CN(CC(=O)N(C)C1CCN(CC2CCOC2)CC1)c1ccccc1` (configuration not stated): the cytotoxicity at 70.5 h was -4.84%.

`CCn1cc(NC(=O)c2cccc(OCC(F)(F)F)n2)cn1`: the cytotoxicity at 70.5 h was -7.52%. The result for `O=c1c2cccnc2cnn1CC(O)c1cccc(C(F)(F)F)c1` (configuration not stated) reads 11.1%; that for `CN1CCN(S(=O)(=O)c2cccc(C#N)c2)c2ccc(F)cc21`, 0.333%. Then `Cc1cc(C(=O)NC2CC(=O)N(C(C)C)C2=O)c(C)n1C(C)C` (configuration not stated), with -7.47%. The result for `O=C(NCCOc1ccc(C(F)(F)F)cn1)c1ccoc1` reads -6.01%; that for `Cc1nc(C)c(C(=O)NCCOc2ccc(C(F)(F)F)cn2)o1`, -3.32%. Turning to `Cc1occc1C(=O)NCCOc1ccc(C(F)(F)F)cn1`, the cytotoxicity at 70.5 h came out at 18.8%. The result for `CC(NCc1cnc(C2CCC2)s1)c1ccccc1-n1cccn1` (configuration not stated) reads -3.26%; that for `CCc1nnc2ccc(NCC3(O)CCOCC3)nn12`, -7.18%; that for `CC(NCc1cnc(C2CCC2)s1)c1ccc(-n2cccn2)cc1` (configuration not stated), -8.33%.

Regarding `CN(C(=O)COC1CCCC1)C1CCN(CC2CCOC2)CC1` (configuration not stated), the cytotoxicity at 70.5 h is -11.5%. Then `CNC(=O)CCCNCc1c(C)nn(CC(C)C)c1N(C)C`, with 0.675%. Regarding `CC(C)=CCS(=O)(=O)Cc1noc(CC(C)C)n1`, the cytotoxicity at 70.5 h is -1.31%.
